Structures can show the parent of a compound that is named as a salt.
Test: In vitro color change (ΔE*) of adjuvant plus dihydroxyacetone formulations on synthetic skin
Conditions: for ΔE* at 5 hours / ΔE* at 21 hours / ΔE* at 46 hours: Example 4: total adjuvant at molar equivalent of 1% glycine, dihydroxyacetone 2.5%; for ΔE* at 5 hours: pH 3.5, 5 hours; for ΔE* at 21 hours: pH 3.5, 21 hours; for ΔE* at 46 hours: pH 3.5, 46 hours; for ΔE* at 5.5 Hours / ΔE* at 29 Hours / ΔE* at 53 Hours: adjuvant at molar equivalent of 1% glycine with 2.5% dihydroxyacetone, pH 3.5, 5 μl/cm^2, 35° C. and 40% RH
Description: Commercially available Vitro-Skin® (synthetic skin) was used as the substrate and pH of the adjuvant and dihydroxyacetone formulations were maintained at 3.5, adjusted with citric acid.
The synthetic skin was pre-hydrated at 95% Relative Humidity (RH) for about 24 hours and then treated with formulations at a dosage of 5 μl/cm^2. The treated synthetic skin was stored at 35° C. and 40% RH for certain time frames, not exceeding 53 hours. Color development was monitored periodically after treatment using a HunterLab Labscan XE colorimeter. ΔE* is defined as √[(ΔL*)^2+(Δa+)^2+(Δb*)^2] where ΔL* is lightness change, Δa* is the change in +red/−green, Δb* is the change in […] and further where smaller ΔE* indicates less color change.

Row | SMILES | ΔE* at 5 hours | ΔE* at 21 hours | ΔE* at 46 hours | ΔE* at 5.5 Hours | ΔE* at 29 Hours | ΔE* at 53 Hours
1 | NCCOS(=O)(=O)O [2-Aminoethyl Hydrogen Sulfate] | 15 | 25 | 27 | 20.0 | 35.0 | 39.0
2 | CSCCN [2-Methylthio-Ethylamine] | – | – | – | 22.0 | 32.0 | 36.0
3 | NCC(=O)O [Glycine, reference compound] | – | – | – | 15.5 | 33.0 | 37.0
4 | NCCS(=O)O [Hypotaurine] | – | – | – | 8.0 | 21.0 | 26.0
5 | NCCS(=O)(=O)O [Taurine] | 9 | 26 | 28 | 17.0 | 33.0 | 36.0
